The record followed here is ChEMBL document CHEMBL4011618, “Discovery of Potent, Selective Stem Cell Factor Receptor/Platelet Derived Growth Factor Receptor Alpha (c-KIT/PDGFRα) Dual Inhibitor for the Treatment of Imatinib-Resistant Gastrointestinal Stromal Tumors (GISTs)” (J Med Chem, 2017).

Calls of active or inactive are those of the source. The calls are words filed in the database; no cut-off is given here.

Data set [1] addresses Vascular endothelial growth factor receptor 2 (Homo sapiens, UniProt P35968).
Description: Inhibition of VEGFR2 (unknown origin) using FAM-labeled peptide as substrate preincubated for 10 mins followed by substrate addition in presence of ATP by mobility shift assay
Data set [2] has as its target T1, Platelet-derived growth factor receptor alpha (Homo sapiens, UniProt P16234). Put plainly: Inhibition of PDGFRalpha (unknown origin) using FAM-labeled peptide as substrate preincubated for 10 mins followed by substrate addition in presence of ATP by mobility shift assay.
Data set [3] deals with Fibroblast growth factor receptor 1 (Homo sapiens, UniProt P11362). Put plainly: Inhibition of FGFR1 (unknown origin) using FAM-labeled peptide as substrate preincubated for 10 mins followed by substrate addition in presence of ATP by mobility shift assay.
Chain of Fibroblast growth factor receptor 1 (P11362 whole entry): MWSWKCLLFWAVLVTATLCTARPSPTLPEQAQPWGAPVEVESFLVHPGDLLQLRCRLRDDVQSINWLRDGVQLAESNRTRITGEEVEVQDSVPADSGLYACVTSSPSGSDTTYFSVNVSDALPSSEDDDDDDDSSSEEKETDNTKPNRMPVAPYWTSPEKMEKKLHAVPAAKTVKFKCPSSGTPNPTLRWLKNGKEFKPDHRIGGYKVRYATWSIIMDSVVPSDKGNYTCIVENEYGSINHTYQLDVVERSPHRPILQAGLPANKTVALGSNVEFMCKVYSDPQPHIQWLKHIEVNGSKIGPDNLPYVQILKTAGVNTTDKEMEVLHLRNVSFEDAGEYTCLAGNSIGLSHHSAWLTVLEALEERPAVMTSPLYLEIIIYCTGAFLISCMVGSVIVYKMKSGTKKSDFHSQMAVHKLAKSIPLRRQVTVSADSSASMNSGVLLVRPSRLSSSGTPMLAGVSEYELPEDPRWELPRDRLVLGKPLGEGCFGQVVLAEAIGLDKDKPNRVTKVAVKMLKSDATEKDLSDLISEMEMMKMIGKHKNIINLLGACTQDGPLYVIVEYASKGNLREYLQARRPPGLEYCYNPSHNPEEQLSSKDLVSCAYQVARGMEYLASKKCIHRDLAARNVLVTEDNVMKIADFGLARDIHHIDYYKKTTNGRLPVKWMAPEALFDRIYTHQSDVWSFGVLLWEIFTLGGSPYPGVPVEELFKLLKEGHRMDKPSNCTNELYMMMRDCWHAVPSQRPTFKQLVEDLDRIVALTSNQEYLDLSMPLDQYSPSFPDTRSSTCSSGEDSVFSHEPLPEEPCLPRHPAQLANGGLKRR
Data set [4] concerns Mast/stem cell growth factor receptor Kit (Homo sapiens), P10721 [T670I].
Chain of Mast/stem cell growth factor receptor Kit (Homo sapiens), P10721 [T670I] (P10721 whole entry T670I): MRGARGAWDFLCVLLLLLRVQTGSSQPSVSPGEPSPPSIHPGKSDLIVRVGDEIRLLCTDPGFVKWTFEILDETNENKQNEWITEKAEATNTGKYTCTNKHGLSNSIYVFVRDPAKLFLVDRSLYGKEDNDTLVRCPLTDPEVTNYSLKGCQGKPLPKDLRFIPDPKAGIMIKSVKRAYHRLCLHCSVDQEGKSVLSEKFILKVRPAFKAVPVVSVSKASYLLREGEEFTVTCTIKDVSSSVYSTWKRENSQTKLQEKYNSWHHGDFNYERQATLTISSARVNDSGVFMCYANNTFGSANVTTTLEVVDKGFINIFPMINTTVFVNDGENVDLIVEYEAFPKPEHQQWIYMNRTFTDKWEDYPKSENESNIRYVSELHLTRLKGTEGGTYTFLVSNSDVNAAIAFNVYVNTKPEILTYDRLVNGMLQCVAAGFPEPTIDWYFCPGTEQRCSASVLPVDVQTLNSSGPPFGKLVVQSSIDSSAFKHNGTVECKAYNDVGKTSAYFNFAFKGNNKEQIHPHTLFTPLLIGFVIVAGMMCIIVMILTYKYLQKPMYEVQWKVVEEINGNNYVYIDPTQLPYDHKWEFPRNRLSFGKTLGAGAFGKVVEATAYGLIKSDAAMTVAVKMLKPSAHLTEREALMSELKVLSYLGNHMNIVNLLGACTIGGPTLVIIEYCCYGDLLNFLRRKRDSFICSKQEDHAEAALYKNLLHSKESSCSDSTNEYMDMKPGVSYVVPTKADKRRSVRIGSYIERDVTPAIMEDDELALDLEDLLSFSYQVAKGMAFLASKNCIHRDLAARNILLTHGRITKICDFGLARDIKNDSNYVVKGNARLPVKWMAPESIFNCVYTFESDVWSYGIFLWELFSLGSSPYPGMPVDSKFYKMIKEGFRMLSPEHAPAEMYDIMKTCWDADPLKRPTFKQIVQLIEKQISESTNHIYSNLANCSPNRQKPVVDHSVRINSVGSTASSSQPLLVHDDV
Description: Inhibition of TEL-fused cKIT T670I mutant (unknown origin) expressed in mouse BAF3 cells assessed as cell growth inhibition after 72 hrs by cell titer-glo assay
Data set [5] has as its target T1, Platelet-derived growth factor receptor alpha.
Description: Inhibition of TEL-fused PDGFRalpha (unknown origin) expressed in mouse BAF3 cells assessed as cell growth inhibition after 72 hrs by cell titer-glo assay
Data set [6] addresses T2, Mast/stem cell growth factor receptor Kit (Homo sapiens, UniProt P10721).
Description: Inhibition of TEL-fused cKIT (unknown origin) expressed in mouse BAF3 cells assessed as cell growth inhibition after 72 hrs by cell titer-glo assay
The subject of data set [7] is Platelet-derived growth factor receptor alpha (Homo sapiens), P16234 [T674I].
Description: Inhibition of TEL-fused PDGFRalpha T674I mutant (unknown origin) expressed in mouse BAF3 cells assessed as cell growth inhibition after 72 hrs by cell titer-glo assay
In data set [8] the target is Vascular endothelial growth factor receptor 3 (Homo sapiens, UniProt P35916). As to the kind of experiment: Inhibition of VEGFR3 (unknown origin) using FAM-labeled peptide as substrate preincubated for 10 mins followed by substrate addition in presence of ATP by mobility shift assay.
Data set [9] deals with Platelet-derived growth factor receptor beta (Homo sapiens, UniProt P09619). Put plainly: Inhibition of PDGFRbeta (unknown origin) using FAM-labeled peptide as substrate preincubated for 10 mins followed by substrate addition in presence of ATP by mobility shift assay.
In data set [10] the target is Receptor-type tyrosine-protein kinase FLT3 (Homo sapiens, UniProt P36888). As to the kind of experiment: Inhibition of FLT3 (unknown origin) using FAM-labeled peptide as substrate preincubated for 10 mins followed by substrate addition in presence of ATP by mobility shift assay.
Data set [11] addresses T2, Mast/stem cell growth factor receptor Kit. The source holds these as a separate data set.
Description: Inhibition of cKIT (unknown origin) using FAM-labeled peptide as substrate preincubated for 10 mins followed by substrate addition in presence of ATP by mobility shift assay
In data set [12] the target is Vascular endothelial growth factor receptor 1 (Homo sapiens, UniProt P17948). Put plainly: Inhibition of VEGFR1 (unknown origin) using FAM-labeled peptide as substrate preincubated for 10 mins followed by substrate addition in presence of ATP by mobility shift assay.
Data set [13] concerns Mast/stem cell growth factor receptor Kit (Homo sapiens), P10721 [C674S].
Description: Inhibition of TEL-fused cKIT C674S mutant (unknown origin) expressed in mouse BAF3 cells assessed as cell growth inhibition after 72 hrs by cell titer-glo assay
The test system of data set [14] is GISTT1. Put plainly: Antitumor activity against human GISTT1 cells xenografted in nu/nu mouse assessed as tumor growth inhibition at 100 mg/kg, ip administered daily for 28 days relative to control. Type of data set: functional. As to conditions: 672 h, read-out: TGI.
Data set [15] concerns Mast/stem cell growth factor receptor Kit (Homo sapiens), P10721 [V654A].
Description: Inhibition of TEL-fused cKIT V654A mutant (unknown origin) expressed in mouse BAF3 cells assessed as cell growth inhibition after 72 hrs by cell titer-glo assay
Data set [16] has as its system Mast/stem cell growth factor receptor Kit (Homo sapiens), P10721 [L576P].
Description: Inhibition of TEL-fused cKIT L576P mutant (unknown origin) expressed in mouse BAF3 cells assessed as cell growth inhibition after 72 hrs by cell titer-glo assay
The test system of data set [17] is BaF3. Conditions: Mus musculus.
Description: Antitumor activity against mouse BAF3 cells harboring TEL-cKIT-T670I mutant allografted in nu/nu mouse assessed as tumor growth inhibition at 100 mg/kg, ip administered daily for 11 days relative to control
Data set [18] has as its system Mast/stem cell growth factor receptor Kit (Homo sapiens), P10721 [V559D,V654A].
Data set [19] has as its system GIST882. As to the kind of experiment: Antiproliferative activity against human GIST882 cells assessed as cell growth inhibition after 72 hrs by cell titer-glo assay. Conditions: GIST882, 72 h. The format is functional. (In general: In ATP-based viability assays light output follows the ATP content of the culture.)
Data set [20] is described as follows: Antiproliferative activity against CHO cells assessed as cell growth inhibition after 72 hrs by cell titer-glo assay. Type of data set: cell-based, Cricetulus griseus. Conditions: chinese hamster.
Data set [21] in a line: Antiproliferative activity against mouse BAF3 cells assessed as cell growth inhibition after 72 hrs by cell titer-glo assay. The format is cell-based.
In data set [22] the test system is MEG-01. As to the kind of experiment: Antiproliferative activity against human MEG01 cells assessed as cell growth inhibition after 72 hrs by cell titer-glo assay. Type of data set: functional. As to conditions: MEG-01, 72 h.
Data set [23] is described as follows: Antiproliferative activity against human GIST48B cells assessed as cell growth inhibition after 72 hrs by cell titer-glo assay. Type of data set: functional.
For data set [24], the system named is Mast/stem cell growth factor receptor Kit (Homo sapiens), P10721 [N822K].
Description: Inhibition of TEL-fused cKIT N822K mutant (unknown origin) expressed in mouse BAF3 cells assessed as cell growth inhibition after 72 hrs by cell titer-glo assay
Data set [25] can be described thus: Antiproliferative activity against CHL cells assessed as cell growth inhibition after 72 hrs by cell titer-glo assay. Conditions: chinese hamster. The format is cell-based, Cricetulus griseus.
Data set [26] deals with KU812 cell line. As to the kind of experiment: Antiproliferative activity against human KU812 cells assessed as cell growth inhibition after 72 hrs by cell titer-glo assay. Type of data set: functional. As to conditions: KU812, 72 h.
The test system of data set [27] is GISTT1. Put plainly: Antiproliferative activity against human GISTT1 cells assessed as cell growth inhibition after 72 hrs by cell titer-glo assay. The format is functional. As to conditions: GISTT1, 72 h.
Data set [28] deals with Mast/stem cell growth factor receptor Kit (Homo sapiens), P10721 [A829P].
Description: Inhibition of TEL-fused cKIT A829P mutant (unknown origin) expressed in mouse BAF3 cells assessed as cell growth inhibition after 72 hrs by cell titer-glo assay

The term IC50 denotes the concentration needed to halve the response being measured. By GI50 is commonly meant the concentration giving 50% growth inhibition.

Chain of Platelet-derived growth factor receptor alpha (Homo sapiens), P16234 [T674I] (P16234 whole entry T674I): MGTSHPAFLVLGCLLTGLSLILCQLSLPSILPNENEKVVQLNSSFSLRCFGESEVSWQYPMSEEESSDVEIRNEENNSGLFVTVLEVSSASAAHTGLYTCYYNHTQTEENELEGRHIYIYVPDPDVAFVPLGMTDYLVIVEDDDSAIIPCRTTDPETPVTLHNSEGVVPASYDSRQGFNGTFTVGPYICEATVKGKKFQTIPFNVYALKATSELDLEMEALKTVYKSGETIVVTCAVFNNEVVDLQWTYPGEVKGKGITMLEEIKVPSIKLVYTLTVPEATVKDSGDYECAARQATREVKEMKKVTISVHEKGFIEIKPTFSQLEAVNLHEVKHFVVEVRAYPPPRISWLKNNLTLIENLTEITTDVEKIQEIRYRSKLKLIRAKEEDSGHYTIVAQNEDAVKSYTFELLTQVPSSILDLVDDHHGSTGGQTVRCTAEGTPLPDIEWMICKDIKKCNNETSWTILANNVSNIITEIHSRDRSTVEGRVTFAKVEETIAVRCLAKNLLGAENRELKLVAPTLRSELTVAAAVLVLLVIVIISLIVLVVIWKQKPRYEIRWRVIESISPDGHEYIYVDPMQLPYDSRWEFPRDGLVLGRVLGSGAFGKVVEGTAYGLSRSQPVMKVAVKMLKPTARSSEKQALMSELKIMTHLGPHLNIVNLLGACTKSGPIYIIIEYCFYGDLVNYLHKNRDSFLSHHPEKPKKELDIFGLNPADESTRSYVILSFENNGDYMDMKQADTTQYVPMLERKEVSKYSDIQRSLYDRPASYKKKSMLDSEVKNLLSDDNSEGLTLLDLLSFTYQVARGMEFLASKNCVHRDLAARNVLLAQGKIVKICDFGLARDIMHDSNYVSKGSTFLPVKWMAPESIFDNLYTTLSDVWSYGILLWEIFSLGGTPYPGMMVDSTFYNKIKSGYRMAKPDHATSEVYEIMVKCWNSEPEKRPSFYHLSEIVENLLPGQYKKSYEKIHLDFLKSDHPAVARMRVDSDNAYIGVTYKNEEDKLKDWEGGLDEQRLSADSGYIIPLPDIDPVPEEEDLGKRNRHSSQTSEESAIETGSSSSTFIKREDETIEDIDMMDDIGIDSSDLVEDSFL
T2 sequence (P10721 whole entry): as the sequence (P10721 whole entry T670I) above, with I670T counted along it
T1 sequence (P16234 whole entry): as the sequence (P16234 whole entry T674I) above, with I674T counted along it

In the case of `Cc1n[nH]c2nccc(-c3ccc(NC(=S)Nc4cccc(Br)c4)cc3)c12`, the results for the IC50 in data set [1], in [2] and in data set [3] were 6240 nM, 1080 nM and 20000 nM, respectively.
On the same counts, the results for `Cc1n[nH]c2nccc(-c3ccc(NC(=S)Nc4cccc(C(F)(F)F)c4)cc3)c12` are 8010 nM, 1570 nM and 42900 nM.
In the case of `Cc1ccc(F)c(NC(=O)Nc2ccc(-c3cc(O)nc4[nH]nc(C)c34)cc2)c1`, the GI50 in data set [4] is more than 10000 nM; in data set [5], 204 nM; in data set [6], more than 10000 nM; in data set [7], more than 10000 nM. The IC50 in data set [1] is 1860 nM; in [2], 1180 nM; in [3], 4640 nM.
Take `Cc1cccc(NC(=O)Nc2ccc(-c3cc(O)nc4[nH]nc(C)c34)cc2)c1`: the results for the IC50 in data set [1], in data set [2] and in data set [3] were 1220 nM, 560 nM and 2260 nM, respectively.
Turning to `Cc1ccc(F)c(NC(=O)Nc2ccc(-c3ccnc4[nH]nc(C)c34)cc2)c1`, the IC50 in [1] is 4290 nM; in data set [2], 87 nM; in [3] it was more than 50000 nM.
For `Cc1ccc(F)c(NC(=O)Nc2ccc(C3CC(O)=Nc4[nH]nc(C)c43)cc2)c1` (stereo unspecified), the GI50 is more than 10000 nM in [4], 4250 nM in data set [5], more than 10000 nM in data set [6] and more than 10000 nM in data set [7]. Further, the IC50 in [1] is more than 50000 nM; in [2], more than 50000 nM; in [3], 33800 nM.
As for `Cc1n[nH]c2nccc(-c3ccc(NC(=O)Nc4cccc(C(F)(F)F)c4)cc3)c12`, the half-maximal inhibitory concentration (IC50) in data set [1] was 1920 nM; in data set [2], 106 nM; in [3], more than 50000 nM.
Regarding `Cc1cccc(NC(=O)Nc2ccc(C3CC(O)=Nc4[nH]nc(C)c43)cc2)c1` (stereo unspecified), the IC50 in data set [1] is more than 50000 nM; in data set [2], more than 50000 nM; in [3], 18300 nM.
On to `Cc1cccc(NC(=O)Nc2ccc(-c3ccnc4[nH]nc(C)c34)cc2)c1`, for which the 50% growth inhibitory concentration (GI50) amounted to 318 nM in data set [4], 10.4 nM in [5], 248 nM in data set [6] and 1170 nM in data set [7]. The IC50 in data set [1] was determined as 1230 nM; in [8], 376 nM; in data set [9] it was 197 nM; in [10] it was 1880 nM; in data set [11], 2.1 nM; in data set [2], 40 nM. In addition, the IC50 in data set [12] is 3490 nM; in [3] it was more than 50000 nM.
As for `Cc1n[nH]c2nccc(-c3ccc(NC(=O)Nc4cccc(Br)c4)cc3)c12`, the IC50 was 3150 nM in data set [1], 137 nM in [2] and more than 50000 nM in data set [3].
`Cc1ccc(NC(=O)c2ccc(CN3CCN(C)CC3)cc2)cc1Nc1nccc(-c2cccnc2)n1` [IMATINIB]: the GI50 in data set [13] was found to be 24.9 nM; in data set [15], 803 nM; in [16] it was 45.1 nM; in data set [18], 803 nM; in data set [19], 20 nM; in [22], 45 nM. For the same compound, the GI50 in [23] is 6990 nM; in data set [7] it was more than 10000 nM; in [24], 1470 nM; in data set [26], 110 nM; in [27], 3 nM; in data set [28], 148 nM. Moreover, the inhibition in vivo at 100 mg/kg in [14] was 87.3%. For the same compound, in [17], the TGI result was “inactive”. For the same compound, the figures for the GI50 at 72 h in data set [20], in data set [21] and in data set [25] were more than 10000 nM, 4690 nM and more than 10000 nM, respectively.
Consider `Cc1cccc(NC(=O)Nc2ccc(-c3ccnc4[nH]nc(CO)c34)cc2)c1`, for which the GI50 amounted to 1840 nM in [4], 10.4 nM in data set [5], 1070 nM in data set [6] and 5000 nM in data set [7]. Besides, the IC50 in data set [1] was determined as 4920 nM; in [11] it was 2.4 nM; in data set [2], 87 nM.
